Measured values as given in patent publication US5525731A, “Camptothecin analogues and methods of preparation thereof” (priority 1994, dated 1996).
Entries after “also recorded” stand apart in the source; their conditions may differ. Read-outs that look alike come from different tables or passages of the source.

Experiments:
833K cells = experiment: Cytotoxicity, XTT assay, 833K cell growth, 72 hr exposure; format: cell-based; details: for IC50: read-out: Inhibitory Concentrations IC50; for IC70: read-out: Inhibitory Concentrations IC70; for IC95: read-out: Inhibitory Concentrations IC95
Protocol: (§1) The synthesized compounds were evaluated for their cytotoxic effects on HL-60 (human promyelocytic leukemia) and 833K cells. The assay was conducted in 96-well microplates. The compounds were serially diluted in 4 to 6 steps with dimethylsulfoxide and added to cell incubation medium (RPMI 1640 containing 10% fetal. […]) at the final concentration of 1.0% dimethylsulfoxide in the medium. The cytotoxicity of the compounds were determined by the XTT-microculture tetrazolium assay: 2',3'-bis(2-methoxy-4-nitro-5-sulfophenyl)-3-[(phenylamino)carbonyl]-2H-tetrazolium hydroxide (XTT) was prepared at 1 mg/mL in prewarmed (37° C.) medium without serum. Phenazine methosulfate (PMS) and fresh XTT were mixed together to obtain 0.075 mM PMS-XTT solution (25 mL of the stock with 5 mg PMS added per 5 mL of 1 mg/mL XTT). Fifty microliters of this mixture were added to each well of the cell culture after 72 hours exposure to the testing compound. After incubation at 37° C. for 6 hours, the absorbance was determined at 450 nm and 630 nm with a microplate reader (EL 340, Bio-Tek Instruments, Inc., Winooski, Vt.). THe median-effect inhibitory concentration (IC50) was determined from a medium-effect plot using computer software for the purpose.
(§2) The results of the assay of cytotoxicity towards HL-60 and 833K cells of several analogues of camptothecin prepared in accord with the invention are illustrated in the accompanying Tables I and II, along with comparison data for native camptothecin. The data shown indicate that the camptothecin analogues prepared by the new methods provided by the invention have significant cytotoxic activity against cancer cells. […]

[1] = system: HL-60 cells (human promyelocytic leukemia); experiment: Cytotoxicity, XTT assay, HL-60 cell growth, 72 hr exposure; format: cell-based
Protocol: as §1, §2

B-16 melanoma = format: in vivo, BD2 F1 mice
Protocol: Average body weight changes were recorded daily.
Tumor: B16 Melanoma Drug A = Camptothecin
Inoculation: 2 × 10^6 cells. S.C.
(§3) Schedule: QD × 5. I.P. started day 4

[2] = Reactivity with thiophenol in dichloromethane
Description: (For a related example of thiophenol addition to α-methylene-γ-lactones, see: Marshall, J. A., et al., J. Org. Chem., 47, 699 (1982).) NMR analysis of the crude reaction mixture indicated formation of the expected adducts 58 and 59.

topoisomerase-I = experiment: Inhibition of topoisomerase-I activity (in words); format: biochemical
[3] = Cytotoxicity of compound 33 (in words); format: cell-based; details: relative to camptothecin
Sarcoma 180 = system: Sarcoma 180
Protocol: The control lane (Table A) indicates separate inoculation of nine mice with B-16 melanoma and sarcoma 180.
Anti-tumor activity of the newly synthesized compounds and the established drugs (as positive controls) against solid tumors (B-16 melanoma and sarcoma 180) was tested in BD2 F1 mice. Tumor (about 2.5×10^6 cells) was inoculated subcutaneously (s.c.). Treatment with the drug started on day 4 after inoculation. The drug was injected intraperitoneously (i.p) daily (QD) for five days. Control mice received the same volume (50 μl) of the solvent vehicle (Dinso) as the drug-treated animals. Tumor size was evaluated every few days using a caliper for both the control and the treated group. Average body weight changes were recorded daily. Any lethality due to high dose drug toxicity or due to tumor progression was also recorded.
as §3

844K cells = experiment: Cytotoxicity, XTT assay, 844K cells (so in the source); format: cell-based; details: Table II, read-out: Inhibitory Concentrations IC50
Protocol: as §1

[4] = Table I, HL-60 (head HL-6), 72 hr, XTT
[5] = Table I, HL-60 (head HL-6), 72 hr, XTT, read-out: Inhibitory Concentrations IC50
[6] = Table II, HL-60, 72 hr, XTT, read-out: Inhibitory Concentrations IC50
[7] = Table II, HL-60, 72 hr, XTT, read-out: Inhibitory Concentrations IC70
[8] = Table II, HL-60, 72 hr, XTT, read-out: Inhibitory Concentrations IC95
[9] = Homo sapiens, HL-60, 72 h, read-out: Inhibitory Concentrations IC50, Table I, HL-60 (head HL-6), 72 hr, XTT
[10] = Homo sapiens, HL-60, 72 h, read-out: Inhibitory Concentrations IC50, Table II, HL-60, 72 hr, XTT
[11] = Homo sapiens, HL-60, 72 h, read-out: Inhibitory Concentrations IC70, Table I, HL-60 (head HL-6), 72 hr, XTT
[12] = Homo sapiens, HL-60, 72 h, read-out: Inhibitory Concentrations IC70, Table II, HL-60, 72 hr, XTT
[13] = Homo sapiens, HL-60, 72 h, read-out: Inhibitory Concentrations IC95, Table I, HL-60 (head HL-6), 72 hr, XTT
[14] = Homo sapiens, HL-60, 72 h, read-out: Inhibitory Concentrations IC95, Table II, HL-60, 72 hr, XTT
[15] = Homo sapiens, 72 h, Table I, 72 hr, XTT
[16] = Homo sapiens, Table I, 72 hr, XTT
[17] = Homo sapiens, HL-60, 72 h, Table I, HL-60 (head HL-6), 72 hr, XTT, read-out: Inhibitory Concentrations IC50
[18] = Homo sapiens, HL-60, 72 h, Table I, HL-60 (head HL-6), 72 hr, XTT, read-out: Inhibitory Concentrations IC70
[19] = Homo sapiens, HL-60, 72 h, Table I, HL-60 (head HL-6), 72 hr, XTT, read-out: Inhibitory Concentrations IC95
[20] = Homo sapiens, HL-60, 72 h, Table II, HL-60, 72 hr, XTT, read-out: Inhibitory Concentrations IC50
[21] = Homo sapiens, HL-60, 72 h, Table II, HL-60, 72 hr, XTT, read-out: Inhibitory Concentrations IC70
[22] = Homo sapiens, HL-60, 72 h, Table II, HL-60, 72 hr, XTT, read-out: Inhibitory Concentrations IC95
[23] = B-16 melanoma, 10 mg/kg i.p. QD × 5, day 7
[24] = B-16 melanoma, 30 mg/kg i.p. QD × 5, day 7

SMILES: CCC1C(=O)OCc2c1c(C(=O)OC)c1n(c2=O)Cc2cc3ccccc3nc2-1 (stereo not shown) [WS-3, 14-Carbomethoxy-20-deoxycamptothecin]
- IC50 (833K cells; Table I, 72 hr, XTT): > 50000 nM
- Inhibitory Concentrations IC70 [1, 4]: 0.318
- Inhibitory Concentrations IC95 [1, 4]: 1.082
- IC50 [1, 5]: 914 nM
- IC50 [1, 6]: 194 nM
- IC70 [1, 7]: 318 nM
- IC95 [1, 8]: 1082 nM

SMILES: CC1(O)C(=O)OCc2c1cc1n(c2=O)Cc2cc3ccccc3nc2-1 (stereo not shown) [WS-7, 20-Methylcamptothecin]
- IC50 (833K cells; Homo sapiens, 72 h): 82 nM
- IC70 (833K cells; Homo sapiens, 72 h): 290 nM
- IC95 (833K cells; Homo sapiens, 72 h): 7160 nM
- IC50 [1, 9]: 62 nM
- IC50 [1, 10]: 62 nM
- IC70 [1, 11]: 90 nM
- IC70 [1, 12]: 90 nM
- IC95 [1, 13]: 229 nM
- IC95 [1, 14]: 229 nM

SMILES: CC=C1C(=O)OCc2c1cc1n(c2=O)Cc2cc3ccccc3nc2-1 [WS-8, 20-dehydrated-CPT]
- IC50 (833K cells; [15]): 1700 nM
- IC70 (833K cells; [16]): 4750 nM
- IC95 (833K cells; [16]): 50400 ± 13800 nM
- IC50 [1, 17]: 3440 nM
- IC70 [1, 18]: 5470 nM
- IC95 [1, 19]: 17100 nM
- IC50 [1, 20]: 3440 nM
- IC70 [1, 21]: 5470 nM
- IC95 [1, 22]: 17100 nM

SMILES: CCC1C(=O)OCc2c1cc1n(c2=O)Cc2cc3ccccc3nc2-1 (stereo not shown) [WS-2, 20-Deoxycamptothecin]
- IC50 (833K cells; [15]): 310 nM
- IC70 (833K cells; [16]): 143 nM
- IC95 (833K cells; [16]): 3170 nM
- IC50 [1, 17]: 39 nM
- IC70 [1, 18]: 52 nM
- IC95 [1, 19]: 109 nM
- IC50 [1, 20]: 39 nM
- IC70 [1, 21]: 52 nM
- IC95 [1, 22]: 109 nM

SMILES: CCC1(O)C(=O)OC(C)c2c1cc1n(c2=O)Cc2cc3ccccc3nc2-1 (stereo not shown) [WS-6, 17-Methylcamptothecin]
- IC50 (833K cells; Homo sapiens, 72 h): 3710 nM
- IC70 (833K cells; Homo sapiens, 72 h): 7340 nM
- IC95 (833K cells; Homo sapiens, 72 h): 40100 nM
- IC50 [1, 9]: 266 nM
- IC50 [1, 10]: 266 nM
- IC70 [1, 11]: 432 nM
- IC70 [1, 12]: 432 nM
- IC95 [1, 13]: 1430 nM
- IC95 [1, 14]: 1430 nM

SMILES: C=C1C(=O)OCc2c1cc1n(c2=O)Cc2c-1nc1ccc(O)cc1c2CC [Compound 33, 7-Ethyl-10-hydroxy-18-nor-anhydrocamptothecin]
- AVERAGE TUMOR VOLUME (B-16 melanoma; B16 melanoma, 10 mg/kg, day 7): 0.163 CM^3
- PERCENT OF CONTROL (tumor volume) (B-16 melanoma; B16 melanoma, 10 mg/kg, day 7): 85.8%
- AVERAGE TUMOR VOLUME (B-16 melanoma; B16 melanoma, 10 mg/kg, day 14): 2.320 CM^3
- AWC (average weight change) (B-16 melanoma; B16 melanoma, 10 mg/kg, day 14): +2.7 GM
- PERCENT OF CONTROL (tumor volume) (B-16 melanoma; B16 melanoma, 10 mg/kg, day 14): 72.7%
- AVERAGE TUMOR VOLUME (B-16 melanoma; B16 melanoma, 30 mg/kg, day 7): 0.036 CM^3
- PERCENT OF CONTROL (tumor volume) (B-16 melanoma; B16 melanoma, 30 mg/kg, day 7): 18.9%
- AVERAGE TUMOR VOLUME (B-16 melanoma; B16 melanoma, 30 mg/kg, day 14): 2.925 CM^3
- AWC (average weight change) (B-16 melanoma; B16 melanoma, 30 mg/kg, day 14): +2.7 GM
- PERCENT OF CONTROL (tumor volume) (B-16 melanoma; B16 melanoma, 30 mg/kg, day 14): 91.7%
- activity compared with authentic camptothecin (B-16 melanoma; B-16 melanoma and sarcoma 180 together): compares favorably with that of authentic camptothecin
- decreased body weight (B-16 melanoma; B-16 melanoma, 10 mg/kg): 1.4 gm
- tumor volume decrease (B-16 melanoma; B-16 melanoma, 10 mg/kg): 14%
- AWC (average weight change) (B-16 melanoma; [23]): -1.4 gm
- Ave Tumor Volume (T/C) (B-16 melanoma; [23]): 0.858
- decreased body weight (B-16 melanoma; B-16 melanoma, 30 mg/kg): 1.9 gm
- tumor volume decrease (B-16 melanoma; B-16 melanoma, 30 mg/kg): 81%
- AWC (average weight change) (B-16 melanoma; [24]): -1.9 gm
- Ave Tumor Volume (T/C) (B-16 melanoma; [24]): 0.189
- reaction with thiophenol [2]: consumption of starting material
- inhibition of topoisomerase-I activity (topoisomerase-I): potent camptothecin-like inhibition of topoisomerase-I activity; also recorded: still retaining enzyme inhibitory function
- cytotoxicity [3]: significantly reduced levels relative to camptothecin
- DEATHS (D/L) (Sarcoma 180; Sarcoma 180, 10 mg/kg, day 7): 0/2
- DEATHS (D/L) (Sarcoma 180; Sarcoma 180, 10 mg/kg, day 14): 0/2
- DEATHS (D/L) (Sarcoma 180; Sarcoma 180, 30 mg/kg, day 7, death on day 4 after treatment, listed as 18-nor-20-dehydro-7-ethyl-10-hydroxycamptothecin): one of the two subjects died after day 4 of treatment
- DEATHS (D/L) (Sarcoma 180; Sarcoma 180, 30 mg/kg, day 7, death on day 4 after treatment, listed as 20-CH2 -7-Et-10-OH-CPT): One of two mice died on day 4 after treatment
- DEATHS (D/L) (Sarcoma 180; Sarcoma 180, 30 mg/kg, day 7, death on day 4 after treatment, listed as B): 1/2
- DEATHS (D/L) (Sarcoma 180; Sarcoma 180, 30 mg/kg, day 14): 0/1

SMILES: CCC1(O)C(=O)OCc2c1c(C(=O)OC)c1n(c2=O)Cc2cc3ccccc3nc2-1 (stereo not shown) [WS-5, 14-Carbomethoxy-Camptothecin]
- IC50 (833K cells; Homo sapiens, 72 h): 63500 nM
- IC70 (833K cells; Homo sapiens, 72 h): 83700 nM
- IC95 (833K cells; Homo sapiens, 72 h): 898000 ± 750000 nM
- IC50 [1, 9]: > 5000 nM
- IC50 [1, 10]: > 5000 nM

SMILES: C=C1C(=O)OCc2c1cc1n(c2=O)Cc2cc3ccccc3nc2-1 [Compound 32, 18-nor-anhydrocamptothecin]
- reaction with thiophenol [2]: consumption of starting material
- inhibition of topoisomerase-I activity (topoisomerase-I): potent camptothecin-like inhibition of topoisomerase-I activity

SMILES: CC[C@@]1(O)C(=O)OCc2c1cc1n(c2=O)Cc2cc3c(CN(C)C)c(O)ccc3nc2-1 [Topotecan]
- IC50 (844K cells): 46 nM

SMILES: CCC1C(=O)OCc2c1c(C(=O)OC)c1n(c2=O)Cc2cc3ccccc3nc2-1 (stereo not shown) [WS-4, 14-Carbomethoxy-20-deoxycamptothecin]
- IC70 (833K cells; [16]): 5800 nM
- IC95 (833K cells; [16]): 59800 nM
- IC50 (833K cells; Table I, 72 hr, XTT): 2260 nM
- Inhibitory Concentrations IC70 [1, 4]: 12.0
- Inhibitory Concentrations IC95 [1, 4]: 618.7
- IC50 [1, 5]: 2440 nM
- IC50 [1, 6]: 2440 nM
- IC70 [1, 7]: 12000 nM
- IC95 [1, 8]: 618700 nM
